The text below walks through data of patent US5863946A, “Iminoxyderivatives of fenamates as inhibitors of prostaglandin biosynthesis” (Abbott Laboratories, priority 1996, dated 1999).

In test [1] the test system is prostaglandin endoperoxide H synthase 2 (PGHS-2). To be noted: reported in literature; cited from earlier work.
Test [2] concerns prostaglandin endoperoxide H synthase 1 (PGHS-1). The note with it: reported in literature; cited from earlier work.
In the next test the target is T1, recombinant human PGHS-1 (Homo sapiens, UniProt P23219).
T1 construct: made in house; host or cells: baculovirus/Sf9 insect cells (microsomes)
Nature of the test: Inhibition of PGE2 production by recombinant human PGHS-1 (microsomes, baculovirus/Sf9; EIA). Type of test: biochemical. The note with it: human recombinant PGHS-1; 60 min preincubation; 10 μM arachidonic acid, 2.5 min. The method, then:
(§1) Inhibition of prostaglandin biosynthesis was evaluated in recombinant human PGHS-1 and PGHS-2 enzyme assays. Representative compounds dissolved in DMSO (3.3% v/v) were preincubated with microsomes from recombinant human PGHS-1 or PGHS-2 expressed in the baculovirus/Sf9 cell system (Gierse, J. K., Hauser, […]., and Seibert, K. […] The reaction was allowed to run for 2.5 minutes at room temperature prior to quenching with HCl and neutralization with NaOH. PGE2 production in the presence and absence of the drug was determined by EIA analysis. The EIA was conducted in 96 well microtiter plates (Nunc Roskilde, Denmark) and optical density measured using a microplate reader (Vmax, Molecular Devices Corp., Menlo Park, Calif.). EIA reagents for prostaglandin determination were purchased from Perseptive Diagnostics, Cambridge, Mass. PGE2 levels were measured against standards prepared in the same milieu. The immunoassays were conducted as recommended by the manufacturer.

The test system of the next test is recombinant human PGHS-2. Nature of the test: Inhibition of PGE2 production by recombinant human PGHS-2 (microsomes, baculovirus/Sf9; EIA). It is filed as biochemical. The note with it: human recombinant PGHS-2, 60 min preincubation, 10 μM arachidonic acid, 2.5 min. The method, then: as §1

Molecules are shown by their SMILES.

T1 sequence (P23219 24-599): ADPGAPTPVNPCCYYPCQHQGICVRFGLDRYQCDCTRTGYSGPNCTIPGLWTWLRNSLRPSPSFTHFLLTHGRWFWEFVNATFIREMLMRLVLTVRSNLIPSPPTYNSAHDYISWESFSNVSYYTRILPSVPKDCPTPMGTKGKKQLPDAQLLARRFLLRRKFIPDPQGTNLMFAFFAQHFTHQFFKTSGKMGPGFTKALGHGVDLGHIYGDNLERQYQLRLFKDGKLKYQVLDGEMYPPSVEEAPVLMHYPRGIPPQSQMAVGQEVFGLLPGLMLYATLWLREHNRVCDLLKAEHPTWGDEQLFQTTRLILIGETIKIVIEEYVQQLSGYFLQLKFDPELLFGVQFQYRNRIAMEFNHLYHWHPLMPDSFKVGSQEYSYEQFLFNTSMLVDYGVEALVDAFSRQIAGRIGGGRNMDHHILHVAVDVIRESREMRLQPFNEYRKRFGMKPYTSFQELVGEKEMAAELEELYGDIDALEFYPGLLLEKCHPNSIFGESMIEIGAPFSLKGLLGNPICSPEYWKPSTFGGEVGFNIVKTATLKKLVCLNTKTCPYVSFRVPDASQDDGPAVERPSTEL

`CC(C)Cc1ccc(C(C)C(=O)O)cc1` (stereo not shown) [ibuprofen]: the “inhibition of PGHS-2” value in test [1] is reported as “inhibit both isozymes”. The “inhibition of PGHS-1” value in test [2] is “inhibit both isozymes”.
With `Cc1ccc(Cl)c(Nc2ccccc2CON=CC(=O)O)c1Cl` [Example 1, glyoxylic acid-O-[2-(2,6-dichloro-3-methylphenylamino)phenylmethyl] oxime], the 50% inhibitory concentration (IC50) on recombinant human PGHS-1 is 6 µM. For the same compound, the “PGHS-2 % Inhibition” value in the test on recombinant human PGHS-2 (@ 0.1 μM) stood at 68%.
`Cc1ccc(Cl)c(Nc2ccccc2C(=O)O)c1Cl` [Meclofenamic acid]: the “inhibition of PGHS-2” value in test [1] is “inhibit both PGHS-1 and PGHS-2”. In addition, the “inhibition of PGHS-1” value in test [2] is “inhibit both PGHS-1 and PGHS-2”.
Take `CC(=NOCc1ccccc1Nc1c(Cl)ccc(C)c1Cl)C(=O)O` [Example 2, pyruvic acid-O-[2-[(2,6-dichloro-3-methylphenyl)amino]phenylmethyl] oxime]: the IC50 at recombinant human PGHS-1 amounted to 61.1 µM. For the same compound, in the test with recombinant human PGHS-2 (@ 1.0 μM), the “PGHS-2 % Inhibition” value amounted to 28%.
With `COc1ccc2cc([C@H](C)C(=O)O)ccc2c1` [naproxen], the “inhibition of PGHS-2” value in test [1] was “inhibit both isozymes”. Also, the “inhibition of PGHS-1” value in test [2] was “inhibit both isozymes”.
